Experimental data: the OligoGym collection
Oligonucleotides are written 5' to 3', each unit as a sugar letter and its base; * is a phosphorothioate linkage, no mark a phosphodiester; rarer units and linkages stand in square brackets, end groups in braces. Plain capitals give the bases only. d = 2'-deoxy (DNA); r = 2'-OH (RNA)
Also: test concentration or dose not given here.

The substances below were run against P2rx2 (rat) (assay: reporter assay of Huesken 2005). Settings: siRNA.
With “sense rArArArGrUrCrArArGrGrGrGrArUrCrArCrCrAdTdT / antisense rUrGrGrUrGrArUrCrCrCrCrUrUrGrArCrUrUrUdGdG” the normalised inhibition (eCFP-eYFP dual reporter) was 66.2%.
Work on “sense rArArArUrUrUrCrArCrCrArUrCrCrUrCrArUrCdTdT / antisense rGrArUrGrArGrGrArUrGrGrUrGrArArArUrUrUdGdG” yielded a normalised inhibition (eCFP-eYFP dual reporter) of 23.6%.
In the case of “sense rArArCrArArGrCrUrCrUrArCrArGrCrCrArUrAdTdT / antisense rUrArUrGrGrCrUrGrUrArGrArGrCrUrUrGrUrUdTdT”, the normalised inhibition (eCFP-eYFP dual reporter) is reported as 76.6%.
In the case of “sense rArArCrUrGrUrGrArCrCrUrGrGrArCrUrUrGrUdTdT / antisense rArCrArArGrUrCrCrArGrGrUrCrArCrArGrUrUdCdC”, the normalised inhibition (eCFP-eYFP dual reporter) is reported as 38.6%.
In the case of “sense rArArGrCrCrUrArUrGrGrGrArUrUrCrGrArArUdTdT / antisense rArUrUrCrGrArArUrCrCrCrArUrArGrGrCrUrUdTdG”, the normalised inhibition (eCFP-eYFP dual reporter) is reported as 76%.
In the case of “sense rArCrArArGrArUrArArArCrGrGrCrArCrUrArCdTdT / antisense rGrUrArGrUrGrCrCrGrUrUrUrArUrCrUrUrGrUdAdA”, the normalised inhibition (eCFP-eYFP dual reporter) is reported as 50.6%.
“sense rArCrArGrCrUrCrUrArCrCrUrGrCrCrArUrUrCdTdT / antisense rGrArArUrGrGrCrArGrGrUrArGrArGrCrUrGrUdGdA” showed a normalised inhibition (eCFP-eYFP dual reporter) of 42.3%.
With “sense rArCrCrArGrGrArCrArGrCrGrArGrArCrCrGrGdTdT / antisense rCrCrGrGrUrCrUrCrGrCrUrGrUrCrCrUrGrGrUdAdG” the normalised inhibition (eCFP-eYFP dual reporter) was 49.5%.
In the case of “sense rArCrGrUrCrUrUrCrArUrCrGrUrGrCrArGrArAdTdT / antisense rUrUrCrUrGrCrArCrGrArUrGrArArGrArCrGrUdAdC”, the normalised inhibition (eCFP-eYFP dual reporter) is reported as 85.2%.
With “sense rArCrUrArCrCrArCrCrArCrUrCrGrArArCrUrCdTdT / antisense rGrArGrUrUrCrGrArGrUrGrGrUrGrGrUrArGrUdGdC” the normalised inhibition (eCFP-eYFP dual reporter) was 43.6%.
With “sense rArCrUrCrCrCrArGrGrArUrCrArGrCrCrArCrCdTdT / antisense rGrGrUrGrGrCrUrGrArUrCrCrUrGrGrGrArGrUdAdG” the normalised inhibition (eCFP-eYFP dual reporter) was 44.7%.
“sense rArCrUrUrCrUrGrArCrArArCrCrArUrUrUrUrCdTdT / antisense rGrArArArArUrGrGrUrUrGrUrCrArGrArArGrUdTdC” showed a normalised inhibition (eCFP-eYFP dual reporter) of 33.5%.
Substance “sense rArGrCrArUrArUrGrGrGrArCrArArArGrArCrCdTdT / antisense rGrGrUrCrUrUrUrGrUrCrCrCrArUrArUrGrCrUdGdG” has a normalised inhibition (eCFP-eYFP dual reporter) of 53.1%.
“sense rArGrGrArUrCrGrArGrGrUrUrArCrCrCrCrUrUdTdT / antisense rArArGrGrGrGrUrArArCrCrUrCrGrArUrCrCrUdGdG” gave a normalised inhibition (eCFP-eYFP dual reporter) of 76.8%.
“sense rArGrGrCrUrGrGrGrUrUrUrCrArUrUrGrUrUrGdTdT / antisense rCrArArCrArArUrGrArArArCrCrCrArGrCrCrUdGdA” gave a normalised inhibition (eCFP-eYFP dual reporter) of 64.9%.
Substance “sense rArGrGrGrCrArCrUrGrUrGrUrArCrCrCrUrArUdTdT / antisense rArUrArGrGrGrUrArCrArCrArGrUrGrCrCrCrUdGdT” has a normalised inhibition (eCFP-eYFP dual reporter) of 55%.
For “sense rArGrUrCrArCrUrArCrUrCrCrCrArGrGrArUrCdTdT / antisense rGrArUrCrCrUrGrGrGrArGrUrArGrUrGrArCrUdAdG”, the normalised inhibition (eCFP-eYFP dual reporter) was 64.6%.
“sense rArGrUrCrArUrCrArUrCrArArCrUrGrGrArArCdTdT / antisense rGrUrUrCrCrArGrUrUrGrArUrGrArUrGrArCrUdCdC” was tested, and the normalised inhibition (eCFP-eYFP dual reporter) was 33.7%.
“sense rCrArArGrGrCrArArUrGrGrGrArUrUrCrGrCrAdTdT / antisense rUrGrCrGrArArUrCrCrCrArUrUrGrCrCrUrUrGdCdA” gave a normalised inhibition (eCFP-eYFP dual reporter) of 64.4%.
With “sense rCrArCrCrArCrUrCrGrArArCrUrCrUrCrArUrCdTdT / antisense rGrArUrGrArGrArGrUrUrCrGrArGrUrGrGrUrGdGdT” the normalised inhibition (eCFP-eYFP dual reporter) was 64.7%.
“sense rCrArCrUrArCrUrCrCrCrArGrGrArUrCrArGrCdTdT / antisense rGrCrUrGrArUrCrCrUrGrGrGrArGrUrArGrUrGdAdC” showed a normalised inhibition (eCFP-eYFP dual reporter) of 46.4%.
“sense rCrArGrCrArUrArUrGrGrGrArCrArArArGrArCdTdT / antisense rGrUrCrUrUrUrGrUrCrCrCrArUrArUrGrCrUrGdGdC” showed a normalised inhibition (eCFP-eYFP dual reporter) of 51.7%.

These substances were tested against UBE2T (assay: reporter assay of Huesken 2005). Settings: siRNA.
“sense rGrCrUrCrArArArUrArUrUrArGrGrUrGrGrArGdTdT / antisense rCrUrCrCrArCrCrUrArArUrArUrUrUrGrArGrCdTdC” showed a normalised inhibition (eCFP-eYFP dual reporter) of 87.1%.
Work on “sense rGrCrUrGrArUrGrArGrGrArArGrArGrArUrGrCdTdT / antisense rGrCrArUrCrUrCrUrUrCrCrUrCrArUrCrArGrCdCdT” yielded a normalised inhibition (eCFP-eYFP dual reporter) of 73.8%.
For “sense rGrCrUrUrGrArUrArArUrCrUrArCrCrArGrArGdTdT / antisense rCrUrCrUrGrGrUrArGrArUrUrArUrCrArArGrCdAdT”, the normalised inhibition (eCFP-eYFP dual reporter) was 101%.
“sense rGrGrArArGrGrArUrUrUrGrUrCrUrGrGrArUrGdTdT / antisense rCrArUrCrCrArGrArCrArArArUrCrCrUrUrCrCdAdG” gave a normalised inhibition (eCFP-eYFP dual reporter) of 96.1%.
For “sense rGrGrCrArUrCrArCrArUrGrUrUrGrGrCrArArGdTdT / antisense rCrUrUrGrCrCrArArCrArUrGrUrGrArUrGrCrCdTdG”, the normalised inhibition (eCFP-eYFP dual reporter) was 87.3%.
“sense rGrGrUrGrCrUrUrGrGrArGrArCrCrArUrCrCrCdTdT / antisense rGrGrGrArUrGrGrUrCrUrCrCrArArGrCrArCrCdTdT” gave a normalised inhibition (eCFP-eYFP dual reporter) of 80.4%.
For “sense rGrUrGrArCrUrCrCrArGrArGrUrArCrArCrArAdTdT / antisense rUrUrGrUrGrUrArCrUrCrUrGrGrArGrUrCrArCdCdA”, the normalised inhibition (eCFP-eYFP dual reporter) was 108%.
Substance “sense rGrUrUrArUrCrArUrUrCrCrUrGrArGrArGrGrUdTdT / antisense rArCrCrUrCrUrCrArGrGrArArUrGrArUrArArCdTdT” has a normalised inhibition (eCFP-eYFP dual reporter) of 75.4%.
With “sense rUrArArArGrArCrCrArArArUrGrGrArUrGrArCdTdT / antisense rGrUrCrArUrCrCrArUrUrUrGrGrUrCrUrUrUrAdTdC” the normalised inhibition (eCFP-eYFP dual reporter) was 63.2%.
For “sense rUrArUrCrArUrCrCrArArArCrArUrUrGrArUrUdTdT / antisense rArArUrCrArArUrGrUrUrUrGrGrArUrGrArUrAdAdA”, the normalised inhibition (eCFP-eYFP dual reporter) was 67.4%.
In the case of “sense rUrArUrUrArGrGrUrGrGrArGrCrCrArArCrArCdTdT / antisense rGrUrGrUrUrGrGrCrUrCrCrArCrCrUrArArUrAdTdT”, the normalised inhibition (eCFP-eYFP dual reporter) is reported as 57.4%.
Work on “sense rUrCrArArCrArCrArGrArArArArGrGrArArGrGdTdT / antisense rCrCrUrUrCrCrUrUrUrUrCrUrGrUrGrUrUrGrAdGdT” yielded a normalised inhibition (eCFP-eYFP dual reporter) of 65.5%.
Substance “sense rUrCrArArCrArUrCrGrCrArArCrUrGrUrGrUrUdTdT / antisense rArArCrArCrArGrUrUrGrCrGrArUrGrUrUrGrAdGdG” has a normalised inhibition (eCFP-eYFP dual reporter) of 103%.
“sense rUrCrArCrUrCrCrArArUrUrUrArUrCrArUrCrCdTdT / antisense rGrGrArUrGrArUrArArArUrUrGrGrArGrUrGrAdGdA” was tested, and the normalised inhibition (eCFP-eYFP dual reporter) was 56.8%.
Substance “sense rUrCrCrGrArUrUrUrCrUrCrArCrUrCrCrArArUdTdT / antisense rArUrUrGrGrArGrUrGrArGrArArArUrCrGrGrAdTdC” has a normalised inhibition (eCFP-eYFP dual reporter) of 109%.
“sense rUrCrUrArCrCrArGrArGrGrCrUrGrGrUrGrArCdTdT / antisense rGrUrCrArCrCrArGrCrCrUrCrUrGrGrUrArGrAdTdT” showed a normalised inhibition (eCFP-eYFP dual reporter) of 63.5%.
“sense rUrCrUrGrCrUrGrGrArArGrGrArUrUrUrGrUrCdTdT / antisense rGrArCrArArArUrCrCrUrUrCrCrArGrCrArGrAdAdT” was tested, and the normalised inhibition (eCFP-eYFP dual reporter) was 87.8%.
Work on “sense rUrCrUrGrGrArUrGrUrUrCrUrCrArArArUrUrGdTdT / antisense rCrArArUrUrUrGrArGrArArCrArUrCrCrArGrAdCdA” yielded a normalised inhibition (eCFP-eYFP dual reporter) of 80.8%.
With “sense rUrGrArArCrCrUrCrCrUrCrArGrArUrCrCrGrAdTdT / antisense rUrCrGrGrArUrCrUrGrArGrGrArGrGrUrUrCrAdAdA” the normalised inhibition (eCFP-eYFP dual reporter) was 105%.
“sense rUrGrArGrArGrGrUrArCrCrCrArUrUrUrGrArAdTdT / antisense rUrUrCrArArArUrGrGrGrUrArCrCrUrCrUrCrAdGdG” was tested, and the normalised inhibition (eCFP-eYFP dual reporter) was 87.4%.
For “sense rUrGrArGrGrArArGrArGrArUrGrCrUrUrGrArUdTdT / antisense rArUrCrArArGrCrArUrCrUrCrUrUrCrCrUrCrAdTdC”, the normalised inhibition (eCFP-eYFP dual reporter) was 91.6%.
Substance “sense rUrGrArUrGrArCrCrCrGrCrUrCrArUrGrGrCrUdTdT / antisense rArGrCrCrArUrGrArGrCrGrGrGrUrCrArUrCrAdGdG” has a normalised inhibition (eCFP-eYFP dual reporter) of 75.6%.
“sense rUrGrArUrUrCrUrGrCrUrGrGrArArGrGrArUrUdTdT / antisense rArArUrCrCrUrUrCrCrArGrCrArGrArArUrCrAdAdT” showed a normalised inhibition (eCFP-eYFP dual reporter) of 95.4%.
For “sense rUrGrGrArUrGrUrUrCrUrCrArArArUrUrGrCrCdTdT / antisense rGrGrCrArArUrUrUrGrArGrArArCrArUrCrCrAdGdA”, the normalised inhibition (eCFP-eYFP dual reporter) was 71.9%.
For “sense rUrGrGrUrGrArCrUrCrCrArGrArGrUrArCrArCdTdT / antisense rGrUrGrUrArCrUrCrUrGrGrArGrUrCrArCrCrAdGdC”, the normalised inhibition (eCFP-eYFP dual reporter) was 80.3%.
In the case of “sense rUrGrUrUrCrUrCrArArArUrUrGrCrCrArCrCrAdTdT / antisense rUrGrGrUrGrGrCrArArUrUrUrGrArGrArArCrAdTdC”, the normalised inhibition (eCFP-eYFP dual reporter) is reported as 53.3%.
“sense rUrGrUrUrGrGrCrArArGrArUrArArArGrArCrCdTdT / antisense rGrGrUrCrUrUrUrArUrCrUrUrGrCrCrArArCrAdTdG” gave a normalised inhibition (eCFP-eYFP dual reporter) of 75.8%.
With “sense rUrUrArArGrCrUrArGrArArGrUrUrArUrCrArUdTdT / antisense rArUrGrArUrArArCrUrUrCrUrArGrCrUrUrArAdAdA” the normalised inhibition (eCFP-eYFP dual reporter) was 89.9%.
With “sense rUrUrGrArArCrCrUrCrCrUrCrArGrArUrCrCrGdTdT / antisense rCrGrGrArUrCrUrGrArGrGrArGrGrUrUrCrArAdAdT” the normalised inhibition (eCFP-eYFP dual reporter) was 56.5%.
Work on “sense rUrUrGrArCrCrUrCrUrArUrUrCrArGrCrUrGrCdTdT / antisense rGrCrArGrCrUrGrArArUrArGrArGrGrUrCrArAdCdA” yielded a normalised inhibition (eCFP-eYFP dual reporter) of 49.2%.
